Assay [1] has as its target T1, BuChE; butyrylcholinesterase (EC 3.1.1.8) from equine serum (Equus caballus, UniProt P81908).
T1 construct: gene BCHE; commercial enzyme from equine serum, Sigma-Aldrich, EC 3.1.1.8
In words: Ellman assay, absorbance at […] nm. In kind it is biochemical. The conditions noted are these: read-out: BuChE / IC50 (μM) ± SD *.

Assay [2] addresses T2, AChE; acetylcholinesterase (E.C. 3.1.1.7) from Electrophorus electricus (Electrophorus electricus, UniProt O42275).
T2 construct: commercial enzyme from Sigma-Aldrich, EC 3.1.1.7, purified from electric eel
In words: Ellman assay, absorbance at […] nm. The conditions noted are these: read-out: AChE / IC50 (μM) ± SD *. In kind it is biochemical.

T1 sequence (P81908 whole entry): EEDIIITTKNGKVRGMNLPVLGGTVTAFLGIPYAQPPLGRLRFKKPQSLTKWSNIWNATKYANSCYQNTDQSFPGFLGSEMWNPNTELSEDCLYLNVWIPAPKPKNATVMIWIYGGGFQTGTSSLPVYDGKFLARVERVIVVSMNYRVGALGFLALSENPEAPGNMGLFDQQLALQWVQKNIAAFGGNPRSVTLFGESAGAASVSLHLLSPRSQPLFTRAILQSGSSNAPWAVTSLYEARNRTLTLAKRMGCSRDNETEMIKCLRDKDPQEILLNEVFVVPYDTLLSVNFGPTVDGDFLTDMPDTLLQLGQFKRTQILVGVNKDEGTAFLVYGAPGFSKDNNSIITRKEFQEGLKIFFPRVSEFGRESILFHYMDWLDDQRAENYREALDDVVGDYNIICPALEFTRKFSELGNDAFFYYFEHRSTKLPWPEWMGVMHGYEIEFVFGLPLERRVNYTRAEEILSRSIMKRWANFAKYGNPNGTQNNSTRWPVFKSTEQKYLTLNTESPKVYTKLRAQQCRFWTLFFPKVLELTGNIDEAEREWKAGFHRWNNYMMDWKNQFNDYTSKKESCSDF
T2 sequence (O42275 24-633): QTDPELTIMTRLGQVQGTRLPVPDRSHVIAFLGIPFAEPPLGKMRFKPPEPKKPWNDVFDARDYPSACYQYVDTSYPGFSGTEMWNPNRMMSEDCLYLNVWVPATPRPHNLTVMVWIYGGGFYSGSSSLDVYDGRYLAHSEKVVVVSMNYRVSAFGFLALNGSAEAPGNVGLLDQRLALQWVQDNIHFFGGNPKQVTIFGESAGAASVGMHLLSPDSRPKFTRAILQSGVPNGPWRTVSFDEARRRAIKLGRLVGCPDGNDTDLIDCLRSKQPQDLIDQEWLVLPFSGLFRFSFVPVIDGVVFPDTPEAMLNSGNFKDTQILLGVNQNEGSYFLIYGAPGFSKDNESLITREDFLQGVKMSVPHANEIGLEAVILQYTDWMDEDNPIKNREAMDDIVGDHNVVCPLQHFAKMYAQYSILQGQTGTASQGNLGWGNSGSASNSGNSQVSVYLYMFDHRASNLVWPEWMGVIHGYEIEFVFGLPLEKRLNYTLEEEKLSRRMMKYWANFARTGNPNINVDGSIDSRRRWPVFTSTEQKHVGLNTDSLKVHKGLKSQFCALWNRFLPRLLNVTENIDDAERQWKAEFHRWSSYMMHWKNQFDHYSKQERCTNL

Turning to `Nc1nnc(-c2cc3cc(Br)ccc3oc2=O)s1` [compound 5, coumarin–thiadiazole hybrid 5], the IC50 was 0.261 ± 0.015 µM in assay [1] and 0.183 ± 0.018 µM in assay [2].
On to `Nc1nnc(-c2cc3cc(O)ccc3oc2=O)s1` [compound 9, coumarin–thiadiazole hybrid 9], for which the figures for the IC50 in assay [1] and in assay [2] were 0.235 ± 0.034 µM and 0.196 ± 0.022 µM, respectively.
As for `Nc1nnc(-c2cc3cc([N+](=O)[O-])ccc3oc2=O)s1` [compound 6, coumarin–thiadiazole hybrid 6], the IC50 was 0.166 ± 0.022 µM in assay [1] and 0.198 ± 0.016 µM in assay [2].
For `COc1cc([N+](=O)[O-])cc2cc(-c3nnc(N)s3)c(=O)oc12` [compound 7, coumarin–thiadiazole hybrid 7] the same measures were 0.494 ± 0.024 µM and 0.159 ± 0.015 µM.
As to `Nc1nnc(-c2cc3ccc(O)c(O)c3oc2=O)s1` [compound 12, coumarin–thiadiazole hybrid 12], the IC50 in assay [1] was 0.264 ± 0.017 µM; in assay [2], 0.187 ± 0.015 µM.
As for `CCN(CC)c1ccc2cc(-c3nnc(N)s3)c(=O)oc2c1` [compound 1, coumarin–thiadiazole hybrid 1], the IC50 was 0.191 ± 0.024 µM in assay [1] and 0.184 ± 0.011 µM in assay [2].
For the compound `Nc1nnc(-c2cc3ccc(O)cc3oc2=O)s1` [compound 10, coumarin–thiadiazole hybrid 10], the IC50 in assay [1] stood at 0.38 ± 0.01 µM; in assay [2], 0.2 ± 0.012 µM.
Consider `Nc1nnc(-c2cc3cc(Cl)ccc3oc2=O)s1` [compound 4, coumarin–thiadiazole hybrid 4], for which the results for the IC50 in assay [1] and in assay [2] were 0.205 ± 0.014 µM and 0.211 ± 0.01 µM, respectively.
Turning to `COc1cccc2cc(-c3nnc(N)s3)c(=O)oc12` [compound 2, coumarin–thiadiazole hybrid 2], the results for the IC50 in assay [1] and in assay [2] were 0.198 ± 0.039 µM and 0.213 ± 0.009 µM, respectively.
For `CCOc1cccc2cc(-c3nnc(N)s3)c(=O)oc12` [compound 3, coumarin–thiadiazole hybrid 3] the same measures were 0.295 ± 0.024 µM and 0.152 ± 0.003 µM.
`Nc1nnc(-c2cc3ccccc3oc2=O)s1` [compound 8, coumarin–thiadiazole hybrid 8]: the IC50 in assay [1] stood at 0.392 ± 0.024 µM; in assay [2], 0.199 ± 0.003 µM.
With `Nc1nnc(-c2cc3cccc(O)c3oc2=O)s1` [compound 11, coumarin–thiadiazole hybrid 11], the figures for the IC50 in assay [1] and in assay [2] were 0.202 ± 0.03 µM and 0.165 ± 0.003 µM, respectively.

The values above are taken from paper PMC9180949, “Design, Spectroscopy, and Assessment of Cholinesterase Inhibition and Antimicrobial Activities of Novel Coumarin–Thiadiazole Hybrids” (International Journal of Molecular Sciences, 2022).
